Source: patent US8058306B2, “Phenyl pyrrole aminoguanidine derivatives” (Action Pharma A/S, priority 2006, dated 2011)
“And” between values parts separate entries of the source, which are not always exact repeats. Identical values can stand only once. “Also recorded” adds a separate entry of the source. Like-named read-outs stand apart in the source and are kept apart here.

Assay: Plasma kinetics in rat following intravenous and oral administration;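 for AUC0-∞: parameter is AUC from zero to infinity in ng·h/mL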
Type: in vivo, Sprague Dawley rats
Method: This study determined the intravenous pharmacokinetics and oral bioavailability of compound 1 of the invention (see FIG. 1A, structure no. 1), compound 2 of the invention (see FIG. 1D, structure no. 19) and compound 3 of the invention (see FIG. 1I, structure no. 53) following administration to Sprague Dawley rats at a dose level of 10 mg/kg.
Six groups of 3 male rats received either a single intravenous or single oral administration of compound 1, 2 or 3 of the invention at a dose level of 10 mg/kg. Blood samples were obtained at various times after dosing. Plasma samples were analysed for unchanged test item using a suitable LC-MS/MS method. Pharmacokinetic parameters were estimated from individual plasma concentrations.
Eighteen male rats each received either a single intravenous or a single oral administration of either compound 1, 2 or 3 at a dose level of 10 mg/kg. The formulation was orally administered to each animal by gastric gavage and intravenously administered to each animal via a tail vein. The dose was administered at a dose volume of 5 mL/kg. The formulations were administered to each animal according to the details in the following table:
Blood samples (ca 0.3 mL) were removed from the femoral vein of each animal into tubes containing lithium heparin as anticoagulant.
Blood samples were collected from 3 rats at the following times after dose administration: • 3, 6, 15, 45 min and 1.5, 2.5, 4, 6, 8, 24 h post dose. Oral Administration
Blood samples were collected from 3 rats at the following times after dose administration: • 5, 15, 45 min and 1.5, 2.5, 4, 6, 8, 24 h post dose. Processing of Blood Samples
Pharmacokinetic parameters of compound 1, 2 and 3 were derived by non-compartmental analysis using WinNonLin Pro version 5.0.1 (Pharsight 2005). The following parameters were derived, where appropriate, from the individual plasma concentration versus time profiles:
• F % The absolute oral bioavailability calculated as [AUC0-t (oral)*Dose(iv)/AUC0-t (iv)*Dose (oral)]*100 based on mean values derived after oral and intravenous administration Consideration was given to the estimation of λz and corresponding t1/2 values. Three or more points are required within the terminal phase for λz and t1/2 to be estimated. The following additional variables were tabulated to aid identification of potentially unreliable estimates of t1/2 and AUC:
Pharmacokinetic parameters were reported as geometric mean except Tmax which was reported as the median. Geometric coefficient of variation was calculated as: […]
Actual sampling times were used for all calculations of pharmacokinetic parameters. Plasma concentrations that were below the limit of quantification were taken as zero for the pharmacokinetic analysis.

[1] = intravenous 10 mg/kg, male rats, individual animals, acetate, 10 mg/kg
[2] = male, Sprague Dawley, rat, plasma, iv, 10 mg/kg, single intravenous 10 mg/kg, male rats, individual animals, read-out: Sample Concentration in plasma
[3] = male, Sprague Dawley, rat, plasma, iv, 10 mg/kg, single intravenous 10 mg/kg, male rats, mean of 3, read-out: Mean Concentration in plasma

In the case of N=C(N)NN=CC=Cc1cccn1-c1ccc(Cl)cc1 [Compound 1, [1-(4-chlorophenyl)-1H-pyrrol-2-yl-allylideneamino]guanidinium acetate], the bioavailability (Sprague Dawley, rat, plasma, 10 mg/kg oral vs intravenous, male rats, from mean AUC0-t, read-out: Mean absolute oral bioavailability) is reported as 34.8%, the “Between-animal variability in systemic exposure, coefficient of variation (CV) of AUC0-t” value (intravenous 10 mg/kg, male rats) is reported as “less than 20%” and the “AUC0-∞” value [1] is reported as 3755 ng·h/mL and 3394 ng·h/mL. The AUC(0-t) [1] was 3662 ng·h/mL and 3262 ng·h/mL, the C0 [1] was 5834 ng/mL and 2729 ng/mL and the CL [1] was 45.15 mL/min/kg and 49.85 mL/min/kg. For the same compound, the MRT [1] was 5.76 h, the Vss [1] was 15.606 L/kg and 19.225 L/kg and the t1/2 [1] was 4.87 h and 5.44 h. For the same compound, the “Systemic clearance (in words)” value (intravenous 10 mg/kg, rats) was “moderate”, the “volume of distribution compared with total body water (in words)” value (intravenous 10 mg/kg, rats, total body water 668 mL/kg, acetate, 10 mg/kg) was “exceeded the total body water; also recorded: markedly greater than that of the total body water” and the “systemic plasma clearance (CL) as share of hepatic blood flow in rats” value (intravenous 10 mg/kg, hepatic blood flow 3312 mL/h/kg) was “approximately 82%”. The AUC(0-inf) (male, Sprague Dawley, rat, plasma, iv, 10 mg/kg, intravenous 10 mg/kg, male rats, Arithmetic Mean) was 3780 ng·h/mL, the AUC(0-t) (male, Sprague Dawley, rat, plasma, iv, 10 mg/kg, intravenous 10 mg/kg, male rats, Arithmetic Mean, read-out: AUC0-t) was 3600 ng·h/mL and the C0 (male, Sprague Dawley, rat, plasma, iv, 10 mg/kg, intravenous 10 mg/kg, male rats, Arithmetic Mean, read-out: C0) was 4210 ng/mL. For the same compound, the clearance (male, Sprague Dawley, rat, plasma, iv, 10 mg/kg, intravenous 10 mg/kg, male rats, Arithmetic Mean, read-out: CL (converted)) was 45.3 mL/min/kg, the MRT (male, Sprague Dawley, rat, plasma, iv, 10 mg/kg, intravenous 10 mg/kg, male rats, Arithmetic Mean, read-out: MRT) was 6.5 h and the Vd (male, Sprague Dawley, rat, plasma, iv, 10 mg/kg, intravenous 10 mg/kg, male rats, Arithmetic Mean, read-out: Vss) was 17.6 L/kg. For the same compound, the half-life (male, Sprague Dawley, rat, plasma, iv, 10 mg/kg, intravenous 10 mg/kg, male rats, Arithmetic Mean, read-out: t1/2 (converted)) was 5.77 h, the AUC(0-inf) (male, Sprague Dawley, rat, plasma, iv, 10 mg/kg, intravenous 10 mg/kg, male rats, Geometric mean) was 3760 ng·h/mL and the AUC(0-t) (male, Sprague Dawley, rat, plasma, iv, 10 mg/kg, intravenous 10 mg/kg, male rats, Geometric mean, read-out: AUC0-t) was 3590 ng·h/mL. For the same compound, the C0 (male, Sprague Dawley, rat, plasma, iv, 10 mg/kg, intravenous 10 mg/kg, male rats, Geometric mean, read-out: C0) was 4020 ng/mL, the clearance (male, Sprague Dawley, rat, plasma, iv, 10 mg/kg, intravenous 10 mg/kg, male rats, Geometric mean, read-out: CL (systemic plasma clearance) (converted)) was 45.1 mL/min/kg and the MRT (male, Sprague Dawley, rat, plasma, iv, 10 mg/kg, intravenous 10 mg/kg, male rats, Geometric mean, read-out: MRT) was 6.47 h. For the same compound, the Vd (male, Sprague Dawley, rat, plasma, iv, 10 mg/kg, intravenous 10 mg/kg, male rats, Geometric mean, read-out: Vss (mean apparent volume of distribution)) was 17.5 L/kg, the half-life (male, Sprague Dawley, rat, plasma, iv, 10 mg/kg, intravenous 10 mg/kg, male rats, Geometric mean, read-out: t1/2 (mean apparent terminal half-life) (converted)) was 5.7 h and the AUC(0-inf) (male, Sprague Dawley, rat, plasma, iv, 10 mg/kg, intravenous 10 mg/kg, male rats, Median) was 3760 ng·h/mL. For the same compound, the AUC(0-t) (male, Sprague Dawley, rat, plasma, iv, 10 mg/kg, intravenous 10 mg/kg, male rats, Median, read-out: AUC0-t) was 3660 ng·h/mL, the C0 (male, Sprague Dawley, rat, plasma, iv, 10 mg/kg, intravenous 10 mg/kg, male rats, Median, read-out: C0) was 4070 ng/mL and the clearance (male, Sprague Dawley, rat, plasma, iv, 10 mg/kg, intravenous 10 mg/kg, male rats, Median, read-out: CL (converted)) was 45.1 mL/min/kg. It also gave an MRT (male, Sprague Dawley, rat, plasma, iv, 10 mg/kg, intravenous 10 mg/kg, male rats, Median, read-out: MRT) of 6.43 h, a Vd (male, Sprague Dawley, rat, plasma, iv, 10 mg/kg, intravenous 10 mg/kg, male rats, Median, read-out: Vss) of 17.9 L/kg and a half-life (male, Sprague Dawley, rat, plasma, iv, 10 mg/kg, intravenous 10 mg/kg, male rats, Median, read-out: t1/2 (converted)) of 5.44 h. For the same compound, the AUC(0-inf) (male, Sprague Dawley, rat, plasma, iv, 10 mg/kg, intravenous 10 mg/kg, male rats, individual animals) was 4180 ng·h/mL, the AUC(0-t) (male, Sprague Dawley, rat, plasma, iv, 10 mg/kg, intravenous 10 mg/kg, male rats, individual animals, read-out: AUC0-t) was 3870 ng·h/mL and the clearance (male, Sprague Dawley, rat, plasma, iv, 10 mg/kg, intravenous 10 mg/kg, male rats, individual animals, read-out: CL (converted)) was 40.9 mL/min/kg. The MRT (male, Sprague Dawley, rat, plasma, iv, 10 mg/kg, intravenous 10 mg/kg, male rats, individual animals, read-out: MRT) was 7.31 h, the Vd (male, Sprague Dawley, rat, plasma, iv, 10 mg/kg, intravenous 10 mg/kg, male rats, individual animals, read-out: Vss) was 17.9 L/kg and the half-life (male, Sprague Dawley, rat, plasma, iv, 10 mg/kg, intravenous 10 mg/kg, male rats, individual animals, read-out: t1/2 (converted)) was 7 h. For the same compound, the concentration at 0.05 h (male, Sprague Dawley, rat, plasma, iv, 10 mg/kg, single intravenous 10 mg/kg, male rats, 0.05 h (3 min), mean of 3, read-out: Mean Concentration in plasma) was 2250 ng/mL, the concentration at 0.1 h [2] was 941 ng/mL and the concentration at 0.1 h [3] was 1120 ng/mL. For the same compound, the concentration at 0.25 h [2] was 589 ng/mL, the concentration at 0.25 h [3] was 705 ng/mL and the concentration at 0.75 h [2] was 441 ng/mL. The concentration at 0.75 h [3] was 392 ng/mL, the concentration at 1.5 h [2] was 347 ng/mL and the concentration at 1.5 h [3] was 308 ng/mL. For the same compound, the concentration at 2.5 h [2] was 239 ng/mL, the concentration at 2.5 h [3] was 233 ng/mL and the concentration at 4 h [2] was 317 ng/mL. It also gave a concentration at 4 h [3] of 254 ng/mL, a concentration at 6 h [2] of 140 ng/mL and a concentration at 6 h [3] of 160 ng/mL. For the same compound, the concentration at 8 h (male, Sprague Dawley, rat, plasma, iv, 10 mg/kg, single intravenous 10 mg/kg, male rats, 8 h, mean, read-out: Mean Concentration in plasma) was 97 ng/mL, the concentration at 24 h (male, Sprague Dawley, rat, plasma, iv, 10 mg/kg, single intravenous 10 mg/kg, male rats, 24 h, mean, read-out: Mean Concentration in plasma) was 20.2 ng/mL and the AUC(0-t) (male, Sprague Dawley, rat, plasma, po, 10 mg/kg, oral 10 mg/kg, male rats, Arithmetic Mean, read-out: AUC0-t) was 1350 ng·h/mL.
